Source: US12612388B2, “Receptor-interacting protein 1 inhibitors including piperazine heterocyclic amide ureas” (SIRONAX LTD., priority 2020, dated 2026)
pEC50: −log10 of the molar value.

The compounds below were run on HT-29 cells (assay: Cellular RIP1 inhibitory activity: necroptosis of HT-29 cells induced by TNF-α/SMAC mimetic/zVAD-FMK, CellTiter-Glo viability). Conditions: Homo sapiens; HT-29 cells; TNF-α 10 ng/ml, SMAC mimetic 6 μM, zVAD-FMK 10 μM; 20 hours; geometric mean, 10 points, duplicates; read-out: EC50 (Cell activity; Necrosis or Necroptosis Inhibitory Activity).
Format: cell-based
Method: In Table 2, activity is provided as follows: +++=0.1 nM≤EC50<100 nM; ++=100 nM≤EC50K<1000 nM; +=1000 nM≤EC50K<10000 nM.
Compounds 1-67 (denoted as Compound Nos. 1 through 67 in Table 1) of the disclosure were tested for binding and cellular RIP1 inhibitory activity following the experimental procedures described below.
Cell line: HT-29 (ATCC® HTB-38™)
Culture medium: McCOY's 5A, Gibco, Cat No. 16600-082
DMSO: Sigma, Cat No. 67-68-5, 1 L
Assay plate: Corning #3903
Compound dilution plate: Corning #3357
Inducers: TNFα, GenScript, Cat No. Z01001-50,
SmacM, Cat. No., HY-15989, MedChemExpress (MCE)
Z_VAD FMK, TargetMol, T6013
Cell Titer-Glo® Luminescent Cell Viability Assay Kit: Promega, Cat No. G7573
1. HT-29 cells were checked every day to make sure that they were healthy and growing as expected. They were subjected to sub-culturing when they were approximately 80% confluent.
2. The culture medium, McCOY's 5A medium (Gibco, Cat No. 16600-082) with 10% fetal bovine serum or FBS (Gibco, Cat No. 10099-141C), was pre-warmed in a 37° C. water bath for at least 30 min.
3. When the cells had reached a desired level of confluency of 80% in a T75 flask, the medium was aspirated, and the cells were washed with warm phosphate buffered saline or PBS two times.
4. 2-3 ml fresh warm trypsin (Gibco, Cat No. 25200-056) solution was added to the washed cells. The flask with the cells was transferred to a 37° C. incubator.
5. After 5 minutes, the side of the flask was tapped, and the flask was examined under a microscope for detachment of the cells to the flask. If necessary, the cells were kept in the incubator for an additional 5-10 minutes, with occasional tapping, until lifting was complete.
6. The trypsin reaction was neutralized by transferring 6-9 ml cell culture medium to sterile 15 ml conical tubes, and by centrifuging the cell culture at 300×g for 7 minutes to pellet the cells (supernatant decanted).
7. The cells were resuspended in fresh cell culture medium and the cell counting was performed using a hemocytometer.
8. 100 μl of the resuspended cell culture medium containing ˜5,000 cells were transferred into each well of the sterile 96-well cell culture plate (Corning 3903) and cultured overnight at 37° C. with 5% CO2.
Compound Titration and Treatment
1. All test compounds were dissolved in DMSO (Dimethyl sulfoxide) to create a 20 mM stock.
2. 3 μl of each compound 20 mM stock was mixed with 27 μl DMSO, and the compound solution was further diluted at a titration ratio of 1:3 (20 μl compound solution+40 μl DMSO) till the 10 points end.
3. All culture medium was removed from assay plates filled with HT-29 cell cultures. The cells were then washed with 1 PBS, and resuspended in fresh, FBS-free McCOY's 5A medium containing a cocktail of TNF-α (10 ng/ml), a SMAC mimetic compound (6 μM) and Z-VAD-fluoromethylketone or zVAD-FMK (10 μM) to stimulate the HT-29 cells to increase RIP1 kinase levels and necroptosis.
4. 0.5 μL of the diluted compound solution was added to the corresponding 96-well assay plates.
5. The assay plates were incubated for 20 hours at 37° C. with 5% CO2.
1. The CellTiter-Glo® Luminescent Cell Viability Assay was employed to detect the ATP levels of viable HT-29 cells.
2. The CellTiter-Glo® buffer and the lyophilized substrate were equilibrated to room temperature prior to use.
3. The CellTiter-Glo® substrate was resuspended with CellTiter-Glo® buffer, then mixed by gently vortexing to obtain a homogeneous solution.
4. 20 μl the enzyme/substrate mixture was transferred by multi-channel pipetting into 96-well assay plates.
5. The assay plates were placed on an orbital shaker and the contents were shaken for 3 minutes to induce cell lysis.
6. The assay plates were incubated at room temperature for 10 minutes to stabilize the luminescent signal.
7. The luminescence signals were read and recorded with EnVision.
8. The geometric mean EC50 values were calculated from 10 points response dose with duplicates. […]

Structure (SMILES) | pEC50
NC(=O)c1ccnc(N2CCN(C(=O)N3N=CC[C@H]3c3ccccc3)CC2)n1 [Compound 41, (S)-2-(4-(5-phenyl-4,5-dihydro-1H-pyrazole-1-carbonyl)piperazin-1-yl)pyrimidine-4-carboxamide] | 7.00 to 10.00
N#Cc1cc(F)cc([C@@H]2CC=NN2C(=O)N2CCN(c3nccc(C(N)=O)n3)CC2)c1 [Compound 42, (S)-2-(4-(5-(3-cyano-5-fluorophenyl)-4,5-dihydro-1H-pyrazole-1-carbonyl)piperazin-1-yl)pyrimidine-4-carboxamide] | 7.00 to 10.00
N#Cc1cncc([C@@H]2CC=NN2C(=O)N2CCN(c3nccc(C(N)=O)n3)CC2)c1 [Compound 43, (S)-2-(4-(5-(5-cyanopyridin-3-yl)-4,5-dihydro-1H-pyrazole-1-carbonyl)piperazin-1-yl)pyrimidine-4-carboxamide] | 6.00 to 7.00
O=C(O)c1ccnc(N2CCN(C(=O)N3N=CC[C@H]3c3cc(F)cc(F)c3)CC2)n1 [Compound 44, (S)-2-(4-(5-(3,5-difluorophenyl)-4,5-dihydro-1H-pyrazole-1-carbonyl)piperazin-1-yl)pyrimidine-4-carboxylic acid] | 5.00 to 6.00
O=C(NCCN1CCOCC1)c1ccnc(N2CCN(C(=O)N3N=CC[C@H]3c3cc(F)cc(F)c3)CC2)n1 [Compound 45, (S)-2-(4-(5-(3,5-difluorophenyl)-4,5-dihydro-1H-pyrazole-1-carbonyl)piperazin-1-yl)-N-(2-morpholinoethyl)pyrimidine-4-carboxamide] | 6.00 to 7.00
CNC(=O)c1ccnc(N2CCN(C(=O)N3N=CC[C@H]3c3cc(F)cc(F)c3)CC2)n1 [Compound 46, (S)-2-(4-(5-(3,5-difluorophenyl)-4,5-dihydro-1H-pyrazole-1-carbonyl)piperazin-1-yl)-N-methylpyrimidine-4-carboxamide] | 7.00 to 10.00
CCOC(=O)c1nc(N2CCN(C(=O)N3N=CC[C@H]3c3cc(F)cc(F)c3)CC2)ncc1F [Compound 47] | 7.00 to 10.00
NC(=O)c1nc(N2CCN(C(=O)N3N=CC[C@H]3c3cc(F)cc(F)c3)CC2)ncc1F [Compound 48, (S)-2-(4-(5-(3,5-difluorophenyl)-4,5-dihydro-1H-pyrazole-1-carbonyl)piperazin-1-yl)-5-fluoropyrimidine-4-carboxamide] | 7.00 to 10.00
COC(=O)c1ccnc(N2CCN(C(=O)N3N=CC[C@H]3c3cc(F)cc(F)c3)CC2)n1 [Compound 49, methyl (S)-2-(4-(5-(3,5-difluorophenyl)-4,5-dihydro-1H-pyrazole-1-carbonyl)piperazin-1-yl)pyrimidine-4-carboxylate] | 7.00 to 10.00
CC1(O)CN(C(=O)c2nc(N3CCN(C(=O)N4N=CC[C@H]4c4cc(F)cc(F)c4)CC3)ncc2F)C1 [Compound 50, (S)-(5-(3,5-difluorophenyl)-4,5-dihydro-1H-pyrazol-1-yl)(4-(5-fluoro-4-(3-hydroxy-3-methylazetidine-1-carbonyl)pyrimidin-2-yl)piperazin-1-yl)methanone] | 7.00 to 10.00
COC1CN(C(=O)c2nc(N3CCN(C(=O)N4N=CC[C@H]4c4cc(F)cc(C#N)c4)CC3)ncc2F)C1 [Compound 51, (S)-3-fluoro-5-(1-(4-(5-fluoro-4-(3-methoxyazetidine-1-carbonyl)pyrimidin-2-yl)piperazine-1-carbonyl)-4,5-dihydro-1H-pyrazol-5-yl)benzonitrile] | 7.00 to 10.00
COC1CN(C(=O)c2nc(N3CCN(C(=O)N4N=CC[C@H]4c4cncc(F)c4)CC3)ncc2F)C1 [Compound 52, (S)-(5-fluoro-2-(4-(5-(5-fluoropyridin-3-yl)-4,5-dihydro-1H-pyrazole-1-carbonyl)piperazin-1-yl)pyrimidin-4-yl)(3-methoxyazetidin-1-yl)methanone] | 7.00 to 10.00
COC1CN(C(=O)c2nc(N3CCN(C(=O)N4N=CC[C@H]4c4cncc(C#N)c4)CC3)ncc2F)C1 [Compound 53, (S)-5-(1-(4-(5-fluoro-4-(3-methoxyazetidine-1-carbonyl)pyrimidin-2-yl)piperazine-1-carbonyl)-4,5-dihydro-1H-pyrazol-5-yl)nicotinonitrile] | 7.00 to 10.00
N#Cc1cc(F)cc([C@@H]2CC=NN2C(=O)N2CCN(c3ncc(F)c(C(=O)N4CC(C#N)C4)n3)CC2)c1 [Compound 54, (S)-1-(2-(4-(5-(3-cyano-5-fluorophenyl)-4,5-dihydro-1H-pyrazole-1-carbonyl)piperazin-1-yl)-5-fluoropyrimidine-4-carbonyl)azetidine-3-carbonitrile] | 7.00 to 10.00
C=C1CN(C(=O)c2nc(N3CCN(C(=O)N4N=CC[C@H]4c4cc(F)cc(F)c4)CC3)ncc2F)C1 [Compound 55, (S)-(5-(3,5-difluorophenyl)-4,5-dihydro-1H-pyrazol-1-yl)(4-(5-fluoro-4-(3-methyleneazetidine-1-carbonyl)pyrimidin-2-yl)piperazin-1-yl)methanone] | 7.00 to 10.00
CC1CN(C(=O)c2nc(N3CCN(C(=O)N4N=CC[C@H]4c4cc(F)cc(F)c4)CC3)ncc2F)C1 [Compound 56, (S)-(5-(3,5-difluorophenyl)-4,5-dihydro-1H-pyrazol-1-yl)(4-(5-fluoro-4-(3-methylazetidine-1-carbonyl)pyrimidin-2-yl)piperazin-1-yl)methanone] | 7.00 to 10.00
N#CC=C1CN(C(=O)c2nc(N3CCN(C(=O)N4N=CC[C@H]4c4cc(F)cc(F)c4)CC3)ncc2F)C1 [Compound 57, (S)-2-(1-(2-(4-(5-(3,5-difluorophenyl)-4,5-dihydro-1H-pyrazole-1-carbonyl)piperazin-1-yl)-5-fluoropyrimidine-4-carbonyl)azetidin-3-ylidene)acetonitrile] | 7.00 to 10.00
N#CCC1CN(C(=O)c2nc(N3CCN(C(=O)N4N=CC[C@H]4c4cc(F)cc(F)c4)CC3)ncc2F)C1 [Compound 58, (S)-2-(1-(2-(4-(5-(3,5-difluorophenyl)-4,5-dihydro-1H-pyrazole-1-carbonyl)piperazin-1-yl)-5-fluoropyrimidine-4-carbonyl)azetidin-3-yl)acetonitrile] | 7.00 to 10.00
N#Cc1cc(F)cc([C@@H]2CC=NN2C(=O)N2CCN(c3ncc(F)c(C(=O)N4CC(OCC5CC5)C4)n3)CC2)c1 [Compound 59, (S)-3-(1-(4-(4-(3-(cyclopropylmethoxy)azetidine-1-carbonyl)-5-fluoropyrimidin-2-yl)piperazine-1-carbonyl)-4,5-dihydro-1H-pyrazol-5-yl)-5-fluorobenzo nitrile] | 7.00 to 10.00
O=C(c1nc(N2CCN(C(=O)N3N=CC[C@H]3c3cc(F)cc(F)c3)CC2)ncc1F)N1CC(OC(F)(F)F)C1 [Compound 60, (S)-(5-(3,5-difluorophenyl)-4,5-dihydro-1H-pyrazol-1-yl)(4-(5-fluoro-4-(3-(trifluoromethoxy)azetidine-1-carbonyl)pyrimidin-2-yl)piperazin-1-yl)methanone] | 7.00 to 10.00
O=C(c1nc(N2CCN(C(=O)N3N=CC[C@H]3c3cc(F)cc(F)c3)CC2)ncc1F)N1CC=CC1 [Compound 61, (S)-(5-(3,5-difluorophenyl)-4,5-dihydro-1H-pyrazol-1-yl)(4-(4-(2,5-dihydro-1H-pyrrole-1-carbonyl)-5-fluoropyrimidin-2-yl)piperazin-1-yl)methanone] | 7.00 to 10.00
COc1cnc(N2CCN(C(=O)N3N=CC[C@H]3c3cc(F)cc(F)c3)CC2)nc1C(N)=O [Compound 62, (S)-2-(4-(5-(3,5-difluorophenyl)-4,5-dihydro-1H-pyrazole-1-carbonyl)piperazin-1-yl)-5-methoxypyrimidine-4-carboxamide] | 6.00 to 7.00
